Among the test systems are SK-MEL-28; SN12C; OVCAR-3; ACHN; BT-549; RXF 393; UACC-257; SK-MEL-5; MDA-MB-231; MOLT-4; SNB-19; LOX IMVI; TK-10; SK-OV-3; DU-145; M14; MDA-N; RPMI-8226; Malme-3M.
Holding throughout (assay): NCI tumour cell line growth inhibition, 48 h

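Following 48 hours of exposure in 96-well plates, responses at five concentrations were used to interpolate endpoints linearly. GI50: concentration for 50% inhibition of growth.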 Calls of active or inactive are those of the source. Cut-off read from the data, not from the text of the source: active = GI50 up to about 1.1 µM and inactive = higher.

Regarding `CCc1nc(N)nc(N)c1-c1ccc(Cc2ccccc2)c([N+](=O)[O-])c1`, the GI50 with SK-MEL-28 was > 39.5 µM (inactive); in the test with SN12C, 0.247 µM (active); in the test on OVCAR-3, 0.873 µM (active); with ACHN, < 0.01 µM (active); in the test on BT-549, 13 µM (inactive); with RXF 393 it was 24.5 µM (inactive). Also, the GI50 was 23.6 µM (inactive) in the test with UACC-257; < 0.01 µM (active) in the test on SK-MEL-5; 38.3 µM (inactive) in the test on MDA-MB-231; < 0.0127 µM (active) in the test with MOLT-4; 1.51 µM (inactive) with SNB-19; < 0.01 µM (active) in the test with LOX IMVI. The GI50 with TK-10 is 29.5 µM (inactive); with SK-OV-3 it was 7.87 µM (inactive); with DU-145, 0.0585 µM (active); with M14, 0.0144 µM (active); with MDA-N, < 0.046 µM (active); in the test with RPMI-8226, 0.0622 µM (active).
Regarding `O=C(COc1ccc(OCC(=O)N2C(=O)CN(c3ccc(Cl)cc3)C2=S)cc1)N1C(=O)CN(c2ccc(Cl)cc2)C1=S`, the GI50 in the test on SK-MEL-28 is 36.3 µM (inactive); in the test on SN12C it was 30.5 µM (inactive); in the test on ACHN, 26.4 µM (inactive); in the test on BT-549 it was 31.5 µM (inactive); with RXF 393 it was 22.8 µM (inactive); with UACC-257 it was 27.8 µM (inactive). Also, the GI50 with SK-MEL-5 was 16.2 µM (inactive); in the test with MDA-MB-231 it was 19.8 µM (inactive); in the test with MOLT-4, 33.7 µM (inactive); in the test with SNB-19, 24.4 µM (inactive); in the test with Malme-3M it was 41.2 µM (inactive); in the test on TK-10, 24.4 µM (inactive). The GI50 in the test with SK-OV-3 is 26.9 µM (inactive); in the test with DU-145, 43.2 µM (inactive); with M14, 29 µM (inactive); in the test with MDA-N it was 29.9 µM (inactive); in the test with RPMI-8226 it was 21.2 µM (inactive).
Regarding `O=C1C(Cl)=C(Oc2ccc([N+](=O)[O-])cc2)C(=O)c2c(O)ccc(O)c21`, the GI50 was > 50.2 µM (inactive) with SK-MEL-28; 98.4 µM (inactive) in the test with SN12C; 33.6 µM (inactive) in the test with OVCAR-3; 54.2 µM (inactive) in the test with ACHN; 49.3 µM (inactive) in the test on BT-549; 23.1 µM (inactive) in the test on RXF 393. The GI50 with UACC-257 is > 100 µM (inactive); in the test on SK-MEL-5 it was > 84.1 µM (inactive); with MDA-MB-231 it was 28.4 µM (inactive); with MOLT-4, 5.85 µM (inactive); with SNB-19, > 100 µM (inactive); in the test on Malme-3M it was 18.1 µM (inactive). The GI50 with TK-10 was 44.1 µM (inactive); with SK-OV-3, > 100 µM (inactive); in the test on DU-145, > 100 µM (inactive); in the test with M14, > 47.8 µM (inactive); with MDA-N it was 21 µM (inactive); with RPMI-8226 it was 21 µM (inactive).
Take `CC1CCC(C(=O)O)(C(Br)C(=O)O)CC1` (stereo not given): the GI50 in the test on SK-MEL-28, in the test on SN12C, in the test on OVCAR-3, in the test on ACHN, in the test on BT-549 and in the test with RXF 393 was > 100 µM (inactive) throughout. Besides, the GI50 with UACC-257, in the test with SK-MEL-5, with MDA-MB-231, in the test with MOLT-4, with SNB-19 and with LOX IMVI was > 100 µM (inactive) in each case. The GI50 in the test on TK-10, in the test with DU-145, in the test on M14, in the test on MDA-N and in the test with RPMI-8226 was > 100 µM (inactive) throughout.

Values taken from ChEMBL document CHEMBL1201862, “PubChem BioAssay data set” (2004).
